The results in this text go back to ChEMBL document CHEMBL5505961, “RIPK1 inhibitors: A key to unlocking the potential of necroptosis in drug development” (Eur J Med Chem, 2024).

Test [1] concerns the target T1, Receptor-interacting serine/threonine-protein kinase 1 (Homo sapiens, UniProt Q13546).
T1 sequence (Q13546 whole entry): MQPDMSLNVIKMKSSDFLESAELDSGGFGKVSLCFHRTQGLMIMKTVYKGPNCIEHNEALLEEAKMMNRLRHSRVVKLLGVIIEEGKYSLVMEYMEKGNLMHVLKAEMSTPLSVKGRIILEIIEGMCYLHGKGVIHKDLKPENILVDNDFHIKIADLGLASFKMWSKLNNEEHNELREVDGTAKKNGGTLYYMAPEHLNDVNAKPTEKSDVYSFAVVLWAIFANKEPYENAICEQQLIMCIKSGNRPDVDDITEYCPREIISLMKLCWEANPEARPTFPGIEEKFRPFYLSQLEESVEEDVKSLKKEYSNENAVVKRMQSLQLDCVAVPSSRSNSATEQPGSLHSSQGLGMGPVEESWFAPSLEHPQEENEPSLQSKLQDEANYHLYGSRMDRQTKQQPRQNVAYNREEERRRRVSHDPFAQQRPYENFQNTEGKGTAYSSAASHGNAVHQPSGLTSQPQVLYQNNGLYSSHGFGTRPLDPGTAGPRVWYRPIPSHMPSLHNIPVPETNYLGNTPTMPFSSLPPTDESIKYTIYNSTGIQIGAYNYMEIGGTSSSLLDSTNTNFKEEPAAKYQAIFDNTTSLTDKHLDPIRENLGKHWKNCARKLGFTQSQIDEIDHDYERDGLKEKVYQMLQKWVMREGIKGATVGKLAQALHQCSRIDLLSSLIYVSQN

Test [2] deals with HT-22. Kind of test: cells. The conditions noted are these: Mus musculus, HT-22, 24 h.
For test [3], the system named is MEF. Kind of test: cells. The conditions noted are these: Mus musculus, 24 h.
For test [4], the system named is L929. In words: cells. The conditions noted are these: Mus musculus.

One may read the IC50 as the point on the concentration scale where inhibition reaches its midpoint. A lower IC50 goes with higher potency. Turning to `O=C(c1cc2c(-c3ccc(F)cc3)cccc2s1)N1CCOCC1`, the IC50 in test [1] came out at 0.11 µM. As usually defined, the EC50 is the concentration giving half of the maximal effect. Higher therefore signals weaker potency. Take `CC(C)(C)c1cc(NC(=O)Nc2ccc(-c3cn4c(n3)sc3cc(OCCN5CCOCC5)ccc34)cc2)no1` [QUIZARTINIB]: the concentration giving a half-maximal response (EC50) is 0.194 µM in test [2] and 66.5 µM in test [3]. In test [4], `CCCS(=O)(=O)Nc1ccc(F)c(C(=O)c2c[nH]c3ncc(-c4ccc(Cl)cc4)cc23)c1F` [VEMURAFENIB] displayed an EC50 of 3.75 µM.
